From patent publication US12077503B2, “Substituted cyclic amides and their use as herbicides” (FMC CORPORATION, priority 2015, dated 2024) come the findings set out here.

Common to all, as to test: Test A preemergence
What all share (format): in vivo

The test system of one assay is Kochia (Kochia scoparia). The settings on record: Bassia scoparia, pre-emergence, 240 h; for pest or weed control at 125 g/ha: 125 g ai/ha, preemergence, 0 to 100 scale where 0 is no effect and 100 is complete control, read-out: Kochia plant response rating; for pest or weed control at 500 g/ha: 500 g ai/ha, Preemergence, visual injury vs untreated controls after approximately 10 d, read-out: Kochia plant response rating (0 to 100 scale where 0 is no effect and 100 is complete control). The method, boiled down:
(§1)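 Greenhouse, ~10 d after spray; visual injury vs untreated controls, 0 = no effect, 100 = complete control. Preemergence: directed soil spray over planted seeds. Postemergence: plants 2–10 cm, 1–2 leaf stage. Loam/sand blend. Compound in non-phytotoxic solvent with surfactant.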

For assay [1], the system named is ragweed (common ragweed, Ambrosia elatior). Conditions: Ambrosia artemisiifolia, pre-emergence, 240 h; for pest or weed control at 125 g/ha: 125 g ai/ha, preemergence, 0 to 100 scale where 0 is no effect and 100 is complete control, read-out: Ragweed plant response rating; for pest or weed control at 500 g/ha: 500 g ai/ha, Preemergence, visual injury vs untreated controls after approximately 10 d, read-out: Ragweed plant response rating (0 to 100 scale where 0 is no effect and 100 is complete control). The method, boiled down:
as §1

Assay [2] deals with barnyardgrass (Echinochloa crus-galli). Conditions: Echinochloa crus-galli, pre-emergence, 240 h; for pest or weed control at 125 g/ha: 125 g ai/ha, preemergence, 0 to 100 scale where 0 is no effect and 100 is complete control, read-out: Barnyardgrass plant response rating; for pest or weed control at 500 g/ha: 500 g ai/ha, Preemergence, visual injury vs untreated controls after approximately 10 d, read-out: Barnyardgrass plant response rating (0 to 100 scale where 0 is no effect and 100 is complete control). The method, boiled down:
as §1

Assay [3] deals with ryegrass, Italian (Italian ryegrass, Lolium multiflorum). The settings on record: Lolium multiflorum, pre-emergence, 240 h; for pest or weed control at 125 g/ha: 125 g ai/ha, preemergence, 0 to 100 scale where 0 is no effect and 100 is complete control, read-out: Ryegrass, Italian plant response rating; for pest or weed control at 500 g/ha: 500 g ai/ha, Preemergence, visual injury vs untreated controls after approximately 10 d, read-out: Ryegrass, Italian plant response rating (0 to 100 scale where 0 is no effect and 100 is complete control). Summed up:
as §1

The test system of assay [4] is pigweed (Amaranthus retroflexus). The settings on record: Amaranthus retroflexus, pre-emergence, 240 h; for pest or weed control at 125 g/ha: 125 g ai/ha, preemergence, 0 to 100 scale where 0 is no effect and 100 is complete control, read-out: Pigweed plant response rating; for pest or weed control at 500 g/ha: 500 g ai/ha, Preemergence, visual injury vs untreated controls after approximately 10 d, read-out: Pigweed plant response rating (0 to 100 scale where 0 is no effect and 100 is complete control).

For the molecule `CN1C[C@H](c2cc(F)cc(F)c2)[C@@H](C(=O)Nc2ccccc2[S@@+](C)[O-])C1=O` [Compound 872], the pest or weed control at 125 g/ha in the assay on Kochia (Kochia scoparia) turned out to be 0%; in assay [1], 60%; in assay [2], 90%; in assay [3], 0%; in assay [4] it was 0%. In addition, the pest or weed control at 500 g/ha came to 80% in the assay with Kochia (Kochia scoparia); 100% in assay [1]; 100% in assay [2]; 40% in assay [3]; 60% in assay [4].

Take `CN1C[C@H](c2cccc(COC(F)F)c2)[C@@H](C(=O)Nc2ccccc2S(C)(=O)=O)C1=O` [Compound 877]: the pest or weed control at 125 g/ha was found to be 60% in the assay on Kochia (Kochia scoparia); 0% in assay [1]; 90% in assay [2]; 0% in assay [3]; 0% in assay [4]. Also, the pest or weed control at 500 g/ha in the assay with Kochia (Kochia scoparia) was 80%; in assay [1], 60%; in assay [2], 100%; in assay [3], 20%; in assay [4] it was 0%.

With `COc1c(F)ccc([C@H]2CNC(=O)[C@@H]2C(=O)Nc2ccccc2F)c1Cl` [Compound 881], the pest or weed control at 125 g/ha in the assay with Kochia (Kochia scoparia) was found to be 30%; in assay [1], 0%; in assay [2] it was 80%; in assay [3], 30%; in assay [4] it was 0%. The pest or weed control at 500 g/ha in the assay with Kochia (Kochia scoparia) is 60%; in assay [1], 0%; in assay [2], 90%; in assay [3], 60%; in assay [4], 0%.

Consider `COc1c(F)ccc([C@H]2CNC(=O)[C@@H]2C(=O)Nc2cccc(F)c2F)c1Cl` [Compound 882], for which the pest or weed control at 125 g/ha with Kochia (Kochia scoparia) came to 70%; in assay [1] it was 30%; in assay [2] it was 90%; in assay [3], 0%; in assay [4], 20%. In addition, the pest or weed control at 500 g/ha turned out to be 90% with Kochia (Kochia scoparia); 60% in assay [1]; 90% in assay [2]; 30% in assay [3]; 20% in assay [4].

Regarding `O=C1NC[C@H](c2ccc3c(c2)CCCO3)[C@H]1C(=O)Nc1ccccc1F` [Compound 885], the pest or weed control at 125 g/ha with Kochia (Kochia scoparia) was determined as 0%; in assay [1], 0%; in assay [2], 70%; in assay [3] it was 0%; in assay [4], 0%. For the same molecule, the pest or weed control at 500 g/ha with Kochia (Kochia scoparia) came out at 0%; in assay [1] it was 0%; in assay [2], 90%; in assay [3] it was 20%; in assay [4] it was 0%.

For the molecule `COc1c(F)ccc([C@H]2CN(C)C(=O)[C@@H]2C(=O)Nc2cccc(F)c2F)c1Cl` [Compound 893], the pest or weed control at 125 g/ha in the assay on Kochia (Kochia scoparia) was found to be 80%; in assay [1], 40%; in assay [2] it was 90%; in assay [3] it was 40%; in assay [4], 30%. Further, the pest or weed control at 500 g/ha came out at 90% in the assay on Kochia (Kochia scoparia); 70% in assay [1]; 100% in assay [2]; 90% in assay [3]; 50% in assay [4].

In the case of `COc1c(F)ccc([C@H]2CN(C)C(=O)[C@@H]2C(=O)Nc2ccc(F)cc2F)c1Cl` [Compound 894], the pest or weed control at 125 g/ha is 60% in the assay on Kochia (Kochia scoparia); 0% in assay [1]; 90% in assay [2]; 50% in assay [3]; 20% in assay [4]. The pest or weed control at 500 g/ha in the assay with Kochia (Kochia scoparia) worked out at 90%; in assay [1], 40%; in assay [2], 100%; in assay [3], 60%; in assay [4], 50%.

With `CN1C[C@H](c2cc(F)c(C(F)(F)F)c(F)c2)[C@@H](C(=O)Nc2cccc(F)c2F)C1=O` [Compound 898], the pest or weed control at 125 g/ha came to 70% in the assay on Kochia (Kochia scoparia); 60% in assay [1]; 90% in assay [2]; 40% in assay [3]; 60% in assay [4]. Further, the pest or weed control at 500 g/ha with Kochia (Kochia scoparia) stood at 90%; in assay [1], 60%; in assay [2] it was 90%; in assay [3], 70%; in assay [4], 80%.

On to `O=C1NC[C@H](c2ccc3c(c2)CCO3)[C@H]1C(=O)Nc1ccc(F)cc1F` [Compound 902], for which the pest or weed control at 125 g/ha with Kochia (Kochia scoparia) worked out at 0%; in assay [1] it was 0%; in assay [2], 40%; in assay [3], 0%; in assay [4], 0%. For the same molecule, the pest or weed control at 500 g/ha was found to be 0% in the assay with Kochia (Kochia scoparia); 0% in assay [1]; 90% in assay [2]; 20% in assay [3]; 0% in assay [4].

In the case of `CCOc1ccc([C@H]2CN(C)C(=O)[C@@H]2C(=O)Nc2ccccc2F)cc1` [Compound 903], the pest or weed control at 125 g/ha with Kochia (Kochia scoparia) came out at 20%; in assay [1] it was 0%; in assay [2] it was 90%; in assay [3], 0%; in assay [4], 0%. The pest or weed control at 500 g/ha in the assay on Kochia (Kochia scoparia) was 90%; in assay [1] it was 0%; in assay [2], 90%; in assay [3], 0%; in assay [4], 0%.

Consider `CCOc1ccc([C@H]2CNC(=O)[C@@H]2C(=O)Nc2ccccc2F)cc1` [Compound 906], for which the pest or weed control at 125 g/ha (with Kochia (Kochia scoparia); in assay [1]; in assay [2]; in assay [3]; in assay [4]) was 0% throughout. Further, the pest or weed control at 500 g/ha (with Kochia (Kochia scoparia); in assay [1]; in assay [2]; in assay [3]; in assay [4]) was 0% throughout.

As to `CCOc1ccc([C@H]2CNC(=O)[C@@H]2C(=O)Nc2cccc(F)c2F)cc1` [Compound 907], the pest or weed control at 125 g/ha in the assay on Kochia (Kochia scoparia) was determined as 0%; in assay [1], 0%; in assay [2], 70%; in assay [3], 0%; in assay [4] it was 0%. Moreover, the pest or weed control at 500 g/ha in the assay with Kochia (Kochia scoparia) is 20%; in assay [1], 0%; in assay [2], 80%; in assay [3], 0%; in assay [4], 0%.

Regarding `Cc1cc(C)cc([C@H]2CNC(=O)[C@@H]2C(=O)Nc2ccccc2C(F)(F)F)c1` [Compound 909], the pest or weed control at 125 g/ha with Kochia (Kochia scoparia) was 0%; in assay [1], 0%; in assay [2], 70%; in assay [3] it was 0%; in assay [4] it was 0%. Also, the pest or weed control at 500 g/ha stood at 50% in the assay with Kochia (Kochia scoparia); 20% in assay [1]; 80% in assay [2]; 30% in assay [3]; 0% in assay [4].
